For assay [1], the system named is Rat aortic endothelial cells. As to the kind of experiment: peptide inhibition of endothelial cell adhesion to FN-SA and OSTP-SA. It counts as cell-based. The note with it: for inhibitory effect on cell adhesion: soluble peptide preincubated with cells 15 minutes. As for the experimental part: To confirm that the observed cell adhesion was directly RGD dependent, inhibition studies were conducted with GRGDSP (amino acids 89 to 94 of SEQ ID NO:2), GRGESP (SEQ ID NO:8), and GRADSP (SEQ ID NO:9) peptides.
Synthetic hexapeptides GRGDSP (amino acids 89 to 94 of SEQ ID NO:2), GRGESP (SEQ ID NO:8), and GRADSP (SEQ ID NO:9) were purchased from Gibco BRL. The inhibition assay was performed with the same protocol as for the cell adhesion assay except that the cells were incubated with the peptides for 15 minutes at room temperature prior to being plated onto the protein-coated wells.

Assay [2] has as its target integrin receptors (on rat aortic endothelial cells). As to the kind of experiment: cell-based or functional assay.
For assay [3], the system named is Rat aortic endothelial cells. As to the kind of experiment: endothelial cell adhesion assay on streptavidin-coated wells. It counts as cell-based. As for the experimental part:
Rat aortic endothelial cells were cultured in MDCB 131 media (Gibco BRL) with fetal bovine serum and used in the cell adhesion assays. Wild type and RGD streptavidin mutants were incubated in 96 well polystyrene plates overnight at 4° C. at various concentrations and then blocked with 1% BSA in PBS for 1 hour at 37° C. prior to the plating of cells (n=3). Alternatively, biotinylated BSA was incubated in the 96 wells overnight at 4° C., blocked with 1% BSA in PBS for one hour at 37° C., and then streptavidin (wild type or RGD) was incubated in the wells for one hour at 37° C. The protein solution was aspirated and the wells rinsed with sterile PBS before 50,000 cells were plated onto the protein coated wells for one hour at 37° C. The media was removed and the wells were rinsed twice with warm PBS (37° C.). The adherent cells were fixed with 4% paraformaldehyde (PFA) for 5 minutes and stained with 0.5% toluidine blue in 4% PFA for another 5 minutes at room temperature before the wells were rinsed by immersing the plate into a large bowl of tap water. The plate was dried by blotting the inverted plate onto paper towels and the remaining dye in the wells was solubilized with 1% SDS prior to reading the absorbance of the wells with a plate reader at 595 nm.

Assay [4] can be described thus: off-rate measurement with tritiated biotin. It counts as binding. The note with it: 25° C., PBS pH 7.0. On the procedure:
Since the mutations occur in a loop opposite from the biotin binding pocket, the rational design of the molecule should obviate any effect of reducing the off-rate, or dissociation constant of streptavidin. This indeed was observed by experimental koff values for the RGD mutants that are within the standard deviation of previously calculated values for wild type streptavidin. Off-rate measurements were performed at 25° C. to quantitatively characterize the biotin affinity of the mutants and compare the results of the binding affinity of wild type streptavidin. Tritiated biotin, “hot” because it is radioactively labeled, was added to samples of the mutant proteins in a PBS solution, pH 7.0, and allowed to equilibrate for 1 to 2 hours. The off-rate reaction was then initiated by the addition of 5 μL of 15 mM “cold” biotin (non-radioactive) in PBS. As the tritiated biotin dissociated from the streptavidin mutants, aliquots were taken at fixed times and scintillation counts were performed to analyze the beta emission of the tritiated biotin. The natural logarithm of the bound tritiated fractions was plotted versus time to attain the off-rate koff, which is calculated from a linear regression of the data points.

The subject of assay [5] is αvβ3 integrin present on the melanoma cells. As to the kind of experiment: peptide and antibody inhibition of melanoma cell adhesion to RGD streptavidin mutants. It counts as cell-based. Conditions: human melanoma cells; antibodies at 10 μg/ml. As for the experimental part:
Melanoma cell adhesion assays on streptavidin coated polystyrene dishes were performed as described above for endothelial cell adhesion assays, except that DMEM with 0.1% BSA and 10 mM HEPES was used as culture medium and 2×10^5 cells were added to each well. Moαv cells that express high levels of αvβ3 integrin were derived from M21 melanoma cells. Adhesion assays were performed on self assembled monolayers constructed on 24 well tissue culture polystyrene dishes. The dishes were evaporated with about 400A gold, then incubated with a 0.1 mM ethanolic thiol solution of 20% biotinylated alkylthiol (BAT) and 80% polyethylene glycol (PEG) overnight. The wells were rinsed three times with 100% ethanol, blown dry with nitrogen, then incubated with 0.05 mg/ml of streptavidin in PBS (wild type or mutant) at 37° C. for one hour with side to side rocking. The protein solution was then removed, and the wells were rinsed three times with PBS before addition of cells. Antibody inhibition assays were performed essentially identically as for the RGD/RGE inhibition assays. LM609 and control were obtained from Chemicon International, Inc. (Calif.) and were used at 1:1000 dilution (10 μg/ml).

Results on 8 molecules are retold here after patent publication US6413934B1, “Streptavidin mutants having secondary functional domains” (University of Washington, priority 1998, dated 2002).

Numbering of substitutions follows the chain as printed. Where two headings read alike, the source gives them in different places.

Consider GRGESP, for which, in assay [1], the “inhibitory effect on cell adhesion” value was “no noticeable inhibitory effect”.
For “Osteopontin Streptavidin (streptavidin having incorporated therein RGD with flanking amino acids as in osteopontin) (designed binder)”, in assay [2], the absorbance at 595 nm (adhered rat aortic endothelial cells) (absorbance at 595 nm) is 0.3 and the coating concentration at saturation of cell adhesion was determined as 100 nM.
As for “Wild type streptavidin: naturally occurring tetrameric biotin-binding protein of Streptomyces avidinii, SEQ ID NO:1”, the “cell adhesion (absorbance at 595 nm, visual inspection)” value is reported as “does not display any cell adhesion above control levels” in assay [3] and “comparable to those for 1% SDS” in assay [3] (listed as wild type). Moreover, the off-rate constant (koff) in assay [4] is 3.3±0.1×10^−6 /sec.
In assay [2], “Fibronectin Streptavidin (streptavidin having incorporated therein RGD with flanking amino acids as in fibronectin) (designed binder)” showed an absorbance at 595 nm (adhered rat aortic endothelial cells) (absorbance at 595 nm) of 0.3 and a coating concentration at saturation of cell adhesion of 100 nM.
On to GRGDSP [RGD peptide], for which the “inhibition of cell adhesive activity of the RGD mutants” value in assay [5] is recorded as “can be inhibited”. The “inhibitory effect on cell adhesion at 100 μm peptide” value in assay [1] (100 μM peptide) was “inhibited cell adhesion”. Besides, the “inhibitory effect on cell adhesion” value in assay [1] is on record as “inhibited cell adhesion in a dose-dependent manner”.
GRADSP: the “inhibitory effect on cell adhesion” value in assay [1] was “no noticeable inhibitory effect”.

B1: FN-SA: streptavidin mutant incorporating the RGD sequence and flanking residues from fibronectin, SEQ ID NO:2 (protein)
chain: MRKIVVAAIAVSLTTVSITASASADPSKDSKAQVSAAEAGITGTWYNQLGSTFIVTAGADGALTGTYESAVGNAESRYVLTGRYDSAPGRGDSPGSGTALGWTVAWKNNYRNAHSATTWSGQYVGGAEARINTQWLLTSGTTEANAWKSTLVEHDTFTKVKPSAASIDAAKKAGVNNGNPLDAVQQ
Molecule B1 gave a koff in assay [4] of 3.28e-06 s⁻¹.

B2: OSTP-SA: streptavidin mutant incorporating the RGD sequence and flanking residues from osteopontin, SEQ ID NO:3 (protein)
chain: B1 chain with P94V
The molecule B2 showed a koff in assay [4] of 3.13e-06 s⁻¹.
